Columns and labels:
[1] = tested on: CYP enzymes in human liver microsomes (HLM); test: Inhibition of 20-HETE production in human liver microsomes (HLM); assay type: biochemical
Protocol: (§1) Experimental principle: The inhibitory activity of 20-HETE production is evaluated by testing the inhibitory effects of the compound on human liver microsomes (HLM), rat liver microsomes (RLM), mouse liver microsomes (MLM), or […] CYP4 subtype enzymes (CYP4F2). This assay employs HLM, RLM, or MLM along with recombinant CYP4F2 (rCYP4F2) and recombinant CYP4A11 (rCYP4A11), which are […] CYP4 subtype enzymes, to detect the effects of the test compound at different concentrations on the metabolic rate of enzyme-specific substrates, to determine the inhibitory effects of the test compound on CYP enzymes in HLM, RLM, or MLM.
(§2) Experimental methods: Dissolve the test compound in DMSO, and subsequently dilute it with an acetonitrile and DMSO mixture (3:1). Add 2 μl of varying concentrations of the test compound and 100 μl of potassium phosphate buffer containing either liver microsomes or recombinant enzymes to a 96-well plate. After mixing well, transfer 30 μl to another well (in duplicate), add 15 μl of 400 μM substrate solution, and mix well again. Preheat at 37° C. for 10 minutes, and then add 15 μl of 6 mM NADPH and incubate at 37° C. for 25 minutes. After 25 minutes, add 160 μl of acetonitrile solution (containing 0.1 μg/ml internal standard) to stop the reaction. Mix well, centrifuge at 3500 g for 15 minutes, and then analyze the supernatant using LC-MS/MS.
(§3) Plot the compound concentration on the x-axis and the inhibition rate on the y-axis to draw the curve. Use GraphPad Prism 5 software to fit the curve and calculate the IC50. The formula is Y=Bottom+(Top−Bottom)/(1+10^((Log IC50−X)×HillSlope)). X represents the logarithmic concentration of the inhibitor, and Y represents the relative enzyme activity at a given inhibitor concentration (relative to the condition without the inhibitor).
(§4) Calculate the inhibition percentages at concentrations of 1000 nM, 500 nM, or 100 nM as well as the half-maximal inhibitory concentration (IC50) of the test compound from the above experiment.

[2] = tested on: CYP enzymes in mouse liver microsomes (MLM); test: Inhibition of 20-HETE production in mouse liver microsomes (MLM); assay type: biochemical
Protocol: as §1, §2, §3, §4

[3] = tested on: CYP enzymes in rat liver microsomes (RLM); test: Inhibition of 20-HETE production in rat liver microsomes (RLM); assay type: biochemical
Protocol: as §1, §2, §3, §4

[4] = Pharmacokinetic (PK) experiment, oral administration in rats; assay type: in vivo, Male SD rats; conditions: 20 mg/kg; for AUC(0-inf) / Cmax / Tmax / half-life / AUC(0-t): male, SD, rat, plasma; for AUC(0-t): read-out: AUC0-24
Protocol: Male SD rats, weighing 180-250 grams, were fasted overnight before testing. The test compound was dissolved in 30% sulfobutylether-β-cyclodextrin and administered orally at a dose of 20 mg/kg. Blood was collected from the tail vein at 15 minutes, 30 minutes, and 1, 2, 4, 6, 8, and 24 hours after administration. Approximately 0.3 ml of blood was collected at each time point, placed in a centrifuge tube containing K2-EDTA, and centrifuged (2000 g for 10 minutes at 4° C.) to take the plasma, which was then stored in an ultra-low temperature freezer at −70° C. or below. A 50 μL plasma sample was mixed with 135 μL of acetonitrile (containing 0.5 μg/mL internal standard) and vortexed for protein precipitation. After centrifugation, the supernatant was taken for LC-MS/MS analysis.

Row | Structure (SMILES) | HLM (% inh @ 100 nM) [1] [%] | IC50 [1] [nM] | HLM (% inh @ 500 nM) [1] [%] | RLM (% inh @ 500 nM) [3] [%] | also measured
1 | O=C(C1CCC(O)C1)N1CCC(c2ccc(-c3cn[nH]c3)cc2F)CC1 (single isomer, unassigned) [Compound 145a, (4-(2-fluoro-4-(1H-pyrazol-4-yl)phenyl)piperidin-1-yl)(3-hydroxycyclopentyl) methanone] | 86.67 |  |  |  | MLM (% inh @ 1000 nM) [2]: 60.45%
2 | O=C(C1CCC(O)C1)N1CCC(c2ccc(-c3cn[nH]c3)cc2F)CC1 (single isomer, unassigned) [Compound 145b, (4-(2-fluoro-4-(1H-pyrazol-4-yl)phenyl)piperidin-1-yl)(3-hydroxycyclopentyl) methanone] | 88.49 |  |  |  | MLM (% inh @ 1000 nM) [2]: 48.10%
3 | O=C(C1CCCCC1O)N1CCC(c2ccc(-c3cn[nH]c3)cc2F)CC1 (single isomer, unassigned) [Compound 149b, (4-(2-fluoro-4-(1H-pyrazol-4-yl)phenyl)piperidin-1-yl)(2-hydroxycyclohexyl) methanone] | 83.42 |  |  |  | MLM (% inh @ 1000 nM) [2]: 47.54%
4 | O=C(N1CCCC1)N1CCC(c2ccc(-c3cn[nH]c3)c(F)c2F)CC1 [Compound 71, (4-(2,3-difluoro-4-(1H-pyrazol-4-yl)phenyl)piperidin-1-yl)(pyrrolidin-1-yl) methanone] |  | 19.7 | 95.89 | 75.13 | absorption and blood exposure after oral administration (in words) [4]: well absorbed and exhibit high blood exposure; AUC(0-inf) [4]: 58000 ng·h/mL; Cmax [4]: 8730 ng/mL; Tmax [4]: 2 h; half-life [4]: 2.41 h; AUC(0-t) [4]: 57900 ng·h/mL
5 | O=C(C1CCCC1)N1CCC(c2ccc(-c3cn[nH]c3)c(F)c2F)CC1 [Compound 98, cyclopentyl(4-(2,3-difluoro-4-(1H-pyrazol-4-yl)phenyl)piperidin-1-yl) methanone] |  | 22 | 96.23 |  | IC50 [3]: 9.68 nM; absorption and blood exposure after oral administration (in words) [4]: well absorbed and exhibit high blood exposure; AUC(0-inf) [4]: 98600 ng·h/mL; Cmax [4]: 8700 ng/mL; Tmax [4]: 3 h; half-life [4]: 2.38 h; AUC(0-t) [4]: 98400 ng·h/mL
6 | O=C1CCCCC1C(=O)N1CCC(c2ccc(-c3cn[nH]c3)c(F)c2F)CC1 (centres unmarked) [Compound 109, 2-(4-(2,3-difluoro-4-(1H-pyrazol-4-yl)phenyl)piperidine-1-carbonyl)cyclohexane-1-one] |  |  | 74.67 | 68.22 | 
7 | O=C(Cc1ccccc1)N1CCC(c2ccc(-c3cn[nH]c3)c(F)c2F)CC1 [Compound 111, 1-(4-(2,3-difluoro-4-(1H-pyrazol-4-yl)phenyl)piperidin-1-yl)-2-phenylethan-1-one] |  |  | 82.17 | 84.99 | 
8 | CCCCCC1CCC(C(=O)N2CCC(c3ccc(-c4cn[nH]c4)c(F)c3F)CC2)CC1 (centres unmarked) [Compound 112, (4-(2,3-difluoro-4-(1H-pyrazol-4-yl)phenyl)piperidin-1-yl)((1s,4r)-4-pentylcyclohexyl) methanone] |  |  | 70.73 | 71.58 | 
9 | O=C(CCCCCc1ccccc1)NCC1CCN(c2ccc(-c3cn[nH]c3)cc2)CC1 [Compound 113, N-((1-(4-(1H-pyrazol-4-yl)phenyl)piperidin-4-yl)methyl)-6-phenylhexanamide] |  | 20.6 | 87.72 | 57.83 | IC50 [3]: 15.5 nM; absorption and blood exposure after oral administration (in words) [4]: well absorbed and exhibit high blood exposure; AUC(0-inf) [4]: 10100 ng·h/mL; Cmax [4]: 2420 ng/mL; Tmax [4]: 1.33 h; half-life [4]: 2.93 h; AUC(0-t) [4]: 10100 ng·h/mL
10 | C#CCCCCCC(=O)NCC1CCN(c2ccc(-c3cn[nH]c3)cc2)CC1 [Compound 114, N-((1-(4-(1H-pyrazol-4-yl)phenyl)piperidin-4-yl)methyl)oct-7-ynamide] |  |  | 85.59 | 54.89 | 
11 | C=CCCCCCC(=O)NCC1CCN(c2ccc(-c3cn[nH]c3)cc2)CC1 [Compound 115, N-((1-(4-(1H-pyrazol-4-yl)phenyl)piperidin-4-yl)methyl)oct-7-enamide] |  | 20.8 | 85.21 |  | IC50 [3]: 26.2 nM
12 | O=S(=O)(C1CCCCC1)N1CCC(c2ccc(-c3cn[nH]c3)cc2F)CC1 [Compound 119, 1-(cyclohexylsulfonyl)-4-(2-fluoro-4-(1H-pyrazol-4-yl)phenyl)piperidine] |  |  | 87.83 | 75.79 | IC50 [3]: 116 nM
13 | O=S(=O)(c1ccc(F)cc1)N1CCC(c2ccc(-c3cn[nH]c3)cc2F)CC1 [Compound 120, 4-(2-fluoro-4-(1H-pyrazol-4-yl)phenyl)-1-((4-fluorophenyl)sulfonyl)piperidine] |  | 16.1 | 93.40 | 71.20 | IC50 [3]: 107 nM
14 | O=C1CCCN1CC1C2CN(c3ccc(-c4cn[nH]c4)cc3)CC12 (centres unmarked) [Compound 125, 1-((3-(4-(1H-pyrazol-4-yl)phenyl)-3-azabicyclo[3.1.0]hexan-6-yl)methyl)pyrrolidin-2-one] |  |  | 94.93 | 34.82 | 
15 | O=C(N1CCCC1)N1CC2CCC(C1)N2c1ccc(-c2cn[nH]c2)c(F)c1F [Compound 128, (8-(2,3-difluoro-4-(1H-pyrazol-4-yl)phenyl)-3,8-diazabicyclo[3.2.1]octan-3-yl)(pyrrolidin-1-yl) methanone] |  |  | 89.99 | 62.11 | 
16 | O=C(N1CCCC1)N1CCN(c2ccc(-c3cn[nH]c3)cc2F)CC1 [Compound 129, (4-(2-fluoro-4-(1H-pyrazol-4-yl)phenyl)piperazin-1-yl)(pyrrolidin-1-yl) methanone] |  |  | 89.94 | 74.89 | 
17 | O=C(N1CCN(c2ccc(-c3cn[nH]c3)cc2F)CC1)C1(O)CCCCC1 [Compound 132, (4-(2-fluoro-4-(1H-pyrazol-4-yl)phenyl)piperazin-1-yl)(1-hydroxycyclohexyl) methanone] |  | 25.6 |  |  | IC50 [2]: 2420 nM
18 | O=C(N1CCC(c2ccc(-c3cn[nH]c3)cc2F)CC1)N1Cc2ccccc2C1 [Compound 136, (4-(2-fluoro-4-(1H-pyrazol-4-yl)phenyl)piperidin-1-yl)(isoindolin-2-yl) methanone] | 87.34 | 19.4 |  |  | IC50 [2]: 664 nM
19 | O=C(C1CCCC1)N1CCC(c2ccc(-c3cn[nH]c3)cc2F)CC1 [Compound 138, cyclopentyl(4-(2-fluoro-4-(1H-pyrazol-4-yl)phenyl)piperidin-1-yl) methanone] |  |  | 92.84 | 77.16 | 
20 | O=C(N1CCC(c2ccc(-c3cn[nH]c3)cc2F)CC1)C1(O)CCCCC1 [Compound 140, (4-(2-fluoro-4-(1H-pyrazol-4-yl)phenyl)piperidin-1-yl)(1-hydroxycyclohexyl) methanone] |  | 17.6 |  |  | IC50 [2]: 1520 nM
21 | O=C(N1CCC(c2ccc(-c3cn[nH]c3)cc2F)CC1)C1(F)CCCCC1 [Compound 141, (4-(2-fluoro-4-(1H-pyrazol-4-yl)phenyl)piperidin-1-yl)(1-fluorocyclohexyl) methanone] | 88.15 |  |  |  | MLM (% inh @ 1000 nM) [2]: 59.36%
22 | O=C(C1CCOC1)N1CCC(c2ccc(-c3cn[nH]c3)cc2F)CC1 (centres unmarked) [Compound 144, (4-(2-fluoro-4-(1H-pyrazol-4-yl)phenyl)piperidin-1-yl)(tetrahydrofuran-3-yl) methanone] | 87.74 |  |  |  | MLM (% inh @ 1000 nM) [2]: 60.66%
23 | O=C(C1CCN(c2ccc(-c3cn[nH]c3)cc2F)CC1)N1CC2CCCC2C1 (centres unmarked) [Compound 153, (1-(2-fluoro-4-(1H-pyrazol-4-yl)phenyl)piperidin-4-yl)(hexahydrocyclopenta[c]pyrrol-2 (1H)-yl) methanone] | 74.69 | 32.4 |  |  | IC50 [3]: 361 nM; absorption and blood exposure after oral administration (in words) [4]: well absorbed and exhibit high blood exposure; AUC(0-inf) [4]: 566000 ng·h/mL; Cmax [4]: 75200 ng/mL; Tmax [4]: 2 h; half-life [4]: 3.26 h; AUC(0-t) [4]: 558000 ng·h/mL

Source: patent US20250034116A1, “1,4-DIHETEROCYCLIC SUBSTITUTED AROMATIC RING OR AROMATIC HETEROCYCLIC COMPOUND AND USE THEREOF” (BeBetter Med Inc., priority 2022, published 2025)
